Kinematic viscosity and mass density data for three compounds are collected here from the NIST ThermoML archive (doi:10.1016/j.fluid.2014.04.019).

Each structure is given as a SMILES string. ± gives the expanded uncertainty stated by the source.

A word on the mass density: it is mass per unit of volume.

For series [1] the following is noted: 101 kPa, Liquid.
Series [2] in a line: xn = mol fraction of the nth substance listed. Conditions: 101 kPa, Liquid, x1 = 1.

Consider `OCCOCCO` [diethylene glycol], for which the kinematic viscosity came to 2.76e-05 ± 1.2e-06 m2/s in series [1] (298.15 K); 2.13e-05 ± 9e-07 m2/s in series [1] (303.15 K); 1.68e-05 ± 7e-07 m2/s in series [1] (308.15 K); 1.45e-05 ± 6e-07 m2/s in series [1] (313.15 K); 1.12e-05 ± 5e-07 m2/s in series [1] (318.15 K). Moreover, the mass density was 1113 ± 2.9 kg/m3 in series [1] (298.15 K); 1109.2 ± 3 kg/m3 in series [1] (303.15 K); 1106.1 ± 3.1 kg/m3 in series [1] (308.15 K); 1103 ± 3.2 kg/m3 in series [1] (313.15 K); 1099.3 ± 3.3 kg/m3 in series [1] (318.15 K).
Turning to `CN(C)C=O` [dimethylformamide], the kinematic viscosity in series [1] (298.15 K) is 8.15e-07 ± 5.2e-08 m2/s; in series [1] (303.15 K), 7.6e-07 ± 4.9e-08 m2/s; in series [1] (308.15 K), 7.22e-07 ± 4.7e-08 m2/s; in series [1] (313.15 K), 6.75e-07 ± 4.4e-08 m2/s; in series [1] (318.15 K), 6.38e-07 ± 4.2e-08 m2/s. The mass density was 943.9 ± 2.4 kg/m3 in series [1] (298.15 K); 939.6 ± 2.5 kg/m3 in series [1] (303.15 K); 934.2 ± 2.6 kg/m3 in series [1] (308.15 K); 929.9 ± 2.7 kg/m3 in series [1] (313.15 K); 924.7 ± 2.8 kg/m3 in series [1] (318.15 K).
Turning to `CN(C)C=O` [dimethylformamide] + OCCOCCO, the kinematic viscosity in series [2] (298.15 K) is 8.15e-07 ± 5.2e-08 m2/s; in series [2] (303.15 K) it was 7.6e-07 ± 4.9e-08 m2/s; in series [2] (308.15 K), 7.22e-07 ± 4.7e-08 m2/s; in series [2] (313.15 K), 6.75e-07 ± 4.4e-08 m2/s; in series [2] (318.15 K), 6.38e-07 ± 4.2e-08 m2/s. The mass density in series [2] (298.15 K) is given as 943.9 ± 2.4 kg/m3; in series [2] (303.15 K) it was 939.6 ± 2.5 kg/m3; in series [2] (308.15 K), 934.2 ± 2.6 kg/m3; in series [2] (313.15 K), 929.9 ± 2.7 kg/m3; in series [2] (318.15 K), 924.7 ± 2.8 kg/m3.
